US12053533B2, “Fluorescent probe for cyclooxygenase-2” (The Board of Trustees of the University of Illinois, priority 2020, dated 2024)

Columns and labels:
[1] = tested on: horseradish peroxidase, bovine catalase, porcine esterase, human CYP2J2 (with cytochrome reductase), rat liver microsomes; test: Enzyme selectivity panel (off-target activation); type: biochemical; conditions: 10-fold excess protein (1.01 U vs 0.101 U COX-2), CoxFluor 10 μM
Method: Enzyme Selectivity. Enzyme activity was defined as the amount substrate (μmol) consumed during one minute by one milligram of enzyme in 100 mM Tris-HCl at pH 8.0 under saturating conditions. Enzyme concentrations were measured using the BCA assay (Thermo Fisher Scientific) according to the published protocol with bovine serum albumin for the standard curve. COX-1 and COX-2 cyclooxygenase activities were measured using Strathkelvin oxygen electrode with arachidonic acid (200 μM). The oxygen electrode was calibrated using 1% sodium sulfite for 0% oxygen and atmosphere equilibrated 100 mM Tris-HCl at pH 8.0 for 100% oxygen. The reaction was monitored at 37° C. in a glass chamber with a total reaction volume of 1 mL. […]
Porcine esterase activity was measured spectroscopically at 405 nm using p-nitrophenyl acetate (1.5 mM) as the substrate. Bovine catalase activity was measured using a discontinuous Amplex® Red-horseradish peroxidase assay to quantify the amount of hydrogen peroxide (initially 31.25 μM) remaining after 0.5 h incubation with excitation at 540 nm and emission at 590 nm. CYP2J2 activity was measured spectroscopically at 340 nm using […] (3-fold excess), NADPH (1 mM), and arachidonic acid (70 μM) as the substrate. […]
Selectivity was assessed using 10-fold excess protein (350 μg/mL) and the solution was brought to a pH of 8.0 after 4 h with 0.5 M aq. […]

[2] = CoxFluor, Ctrl-CoxFluor & Resorufin stability assays; type: physicochemical; conditions: 8 hours at room temperature or 37° C., with or without ambient light
Method: CoxFluor, Ctrl-CoxFluor & Resorufin Stability Assays. Stability assays were performed for a 10 μM solution of each compound in a series of buffers/solvents (100 mM Tris-HCl at pH 8.0, DMEM with 10% FBS, DMEM without serum and DMSO). Stability was assessed at room temperature or at 37° C. and in the presence or absence of ambient light. Fluorescence was measured using the plate reader with excitation at 540 nm and emission from 560-700 nm and the relative turn-on was determined by the change of fluorescence intensity at 590 nm.

[3] = target: T1, COX-2 (Homo sapiens, UniProt P35354); test: COX-2 fluorescence assay with CoxFluor (fluorimeter / plate reader); type: biochemical; set-up: made in house
T1 sequence (P35354 18-604): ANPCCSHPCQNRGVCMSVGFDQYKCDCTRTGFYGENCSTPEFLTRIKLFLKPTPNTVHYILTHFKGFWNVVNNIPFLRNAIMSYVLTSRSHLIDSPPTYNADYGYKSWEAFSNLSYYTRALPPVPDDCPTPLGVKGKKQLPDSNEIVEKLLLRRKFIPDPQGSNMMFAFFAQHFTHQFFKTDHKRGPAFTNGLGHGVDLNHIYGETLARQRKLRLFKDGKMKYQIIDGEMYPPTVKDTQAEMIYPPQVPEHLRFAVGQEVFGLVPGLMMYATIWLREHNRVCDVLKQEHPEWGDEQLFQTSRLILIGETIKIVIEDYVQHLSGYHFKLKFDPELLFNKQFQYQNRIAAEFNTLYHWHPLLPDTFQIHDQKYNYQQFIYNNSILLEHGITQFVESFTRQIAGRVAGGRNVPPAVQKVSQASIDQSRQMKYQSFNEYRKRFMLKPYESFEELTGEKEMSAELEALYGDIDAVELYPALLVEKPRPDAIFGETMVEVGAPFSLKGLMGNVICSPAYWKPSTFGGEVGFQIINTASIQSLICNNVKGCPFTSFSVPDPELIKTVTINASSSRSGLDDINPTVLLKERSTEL
Method: Fluorimeter Fluorescence Assay. The fluorescence assays were performed in microquartz cuvettes or submicroquartz cuvettes with a maximum volume of 600 μL. Reactions were monitored at room temperature using 540 nm excitation and emission was collected from 550-700 nm with a slit width of 1.25 mm. Total volumes of the reaction mixtures were maintained at 570 μL. […] Experiments in the presence of reduced GSH were conducted according to the same procedure, but GSH (30 μL, 19 mM in 100 mM Tris-HCl, pH 8.0) was added before the addition of CoxFluor for a final concentration of 1 mM. Assays performed in submicroquartz cuvettes were performed maintaining the same ratios, but with a final volume of 142.5 μL.
Plate Reader Fluorescence Assay. The fluorescence assays were performed at room temperature using 540 nm excitation and 590 nm emission. Total volume of the reaction mixture was maintained at 190 μL. […] Inhibition assays were performed according to the same procedure, but COX-2 was preincubated with hemin and inhibitor for 0.5 h at 0° C. before initiation with CoxFluor. Relative fluorescence enhancement is calculated by comparing to a buffer control with 10 μM CoxFluor.

SMILES: CCCCC/C=C\C/C=C\C/C=C\C/C=C\CCCC(=O)N1c2ccc(O)cc2Oc2cc(O)ccc21 [CoxFluor]
- selectivity against tested enzymes [1]: good selectivity
- stability in Tris-HCl and DMEM buffer systems [2]: stable
- measured rate for turnover relative to natural substrate cyclooxygenase activity [3]: ≤ 100 fold
- fluorescent turn-on response ([3]; CoxFluor 10 μM, COX-2 250 nM, hemin 1 μM, 4 h, room temperature, 100 mM Tris HCl pH 8.0): 41 fold
- COX-2-specific fluorescence enhancement in the presence of glutathione ([3]; glutathione 1 mM, COX-2 250 nM): maintained significant COX-2-specific fluorescence enhancements
